Measured values reported in patent US12275729B2 (Merck Sharp & Dohme LLC, priority 2017, dated 2025).
Counter-ions that a name gives are not always drawn.

Experiments:
IDO1 [1] = molecular target: T1, IDO1 (Homo sapiens, UniProt P14902); experiment: IDO1 Human Whole Blood Assay; format: cell-based; set-up: Human whole blood was drawn in sodium heparin coated tubes from healthy internal donors; from tissue; host or cells: human whole blood from healthy donors, stimulated with LPS and IFNγ; conditions: LPS and IFNγ stimulated
T1 sequence (P14902 whole entry): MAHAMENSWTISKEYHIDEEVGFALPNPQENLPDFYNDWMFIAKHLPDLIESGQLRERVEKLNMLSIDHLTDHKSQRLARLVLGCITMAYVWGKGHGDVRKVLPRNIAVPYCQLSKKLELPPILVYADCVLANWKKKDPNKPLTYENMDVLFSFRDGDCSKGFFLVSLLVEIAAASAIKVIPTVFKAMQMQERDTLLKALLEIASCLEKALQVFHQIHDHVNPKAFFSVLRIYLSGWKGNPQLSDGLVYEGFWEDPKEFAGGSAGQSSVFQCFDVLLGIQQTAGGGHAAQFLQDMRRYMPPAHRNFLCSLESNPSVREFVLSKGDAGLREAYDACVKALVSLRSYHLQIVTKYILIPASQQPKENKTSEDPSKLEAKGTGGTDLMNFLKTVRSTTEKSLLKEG
Procedure: IDO1 Human Whole Blood Assay
Compounds to be tested were serially diluted in ten 3-fold steps in DMSO starting from 10 mM. […] LPS and IFNγ was prepared in RPMI to a 10× of final conc. (1000 ng/mL), final concentration is 100 ng/mL.
Human whole blood was drawn in sodium heparin coated tubes from healthy internal donors. 240 μL of blood was transferred to each of the wells of a v-bottom 96 well plate. 30 μL of compound was transferred from intermediate dilution plate, and incubated for 15 min. 30 μL from stimulants was then transferred to blood and mixed thoroughly.
On day 2 isotope labeled standard of kynurenine and tryptophan was made in water at 1Ox concentration and 30 μL was added to the blood at […] final concentration. The assay plates were centrifuged at 300×G for 10 min with no brake to separate plasma from red blood cells. 60 μL of plasma samples was removed without disturbing red blood cells. Plasma was diluted with RPMI in 1:1 ratio and proteins were precipitated out with two volume of Acetonitrile. The plates were centrifuged at 4000×G for 60 min. 20 μL of supernatant was carefully transferred to a 384 well plate contain 40 μL of 0.1% formic acid in water and analyzed by LC/MS/MS.
LC/MS/MS analyses were performed using Thermo Fisher's LX4-TSQ Quantum Ultra system. This system consists of four Agilent binary high-performance liquid chromatography (HPLC) pumps and a TSQ Quantum Ultra triple quadrupole MS/MS instrument. For each sample, 5 μL were injected onto an Atlantis T3 column (2.1 mm×150 mm, […] particle size) from Waters. The mobile phase gradient pumped at 0.8 mL/min was used to elute the analytes from the column at 25° C. […] Mobile phase A consisted of 0.1% formic acid in water. Mobile phase B consisted of 0.1% of formic acid in acetonitrile. Data was acquired in positive mode using a HESI interface. The operational parameters for the TSQ Quantum Ultra instrument were a spray voltage of 4000 V, capillary temperature of 380° C., vaporizer temperature 400° C., shealth gas 60 arbitrary units, Aux gas 20 arbitrary units, tube lens 85 and collision gas 1.2 mTorr. […] The peak area was integrated by Xcalibur Quan software. The ratios between the kynurenine generated in the reaction and 2D6-Kynurenine spiked-in internal standard were used to generate percentage inhibition and IC50 values.

IDO1 [2] = molecular target: T1, IDO1; experiment: IDO1 Cellular Assay in HeLa Cells Stimulated with IFNγ; format: cell-based
[3] = about 48 hours, read-out: Hela IC50
[4] = value in running text, read-out: Hela IC50

Structure (SMILES) | IC50 (IDO1 [1]) [nM] | IC50 (IDO1 [2]; read-out: Hela IC50) [nM] | IC50 (IDO1 [2]; [3]) [nM] | IC50 (IDO1 [2]; value in running text, read-out: Hela Cell IC50) [nM] | IC50 (IDO1 [2]; [4]) [nM]
O=C(OC1CC1)N1CCCc2nc(C3(C(=O)Nc4ccc(F)cc4)CC4(CC4)C3)ccc21 [Example 417, cyclopropyl 6-(5-((4-fluorophenyl)carbamoyl)spiro[2.3]hexan-5-yl)-3,4-dihydro-1,5-naphthyridine-1(2H)-carboxylate] | 12 | 0.73 | – | – | –
O=C(C1COC1)N1CCCc2cc(C3(C(=O)Nc4ccc(F)cc4)CCC3)ccc21 [Example 115, N-(4-fluorophenyl)-1-[1-(oxetane-3-carbonyl)-1,2,3,4-tetrahydroquinolin-6-yl]cyclobutane-1-carboxamide] | 480 | – | 20 | – | –
CC(C(=O)Nc1ccc(F)cc1)c1ccc2c(c1)CCCN2C(=O)c1cccc(Cl)c1 (racemic) [Example 50, 2-[1-(3-chlorobenzene-1-carbonyl)-1,2,3,4-tetrahydroquinolin-6-yl]-N-(4-fluorophenyl)propanamide] | 43 | – | 2.5 | – | –
Cc1cccc(N2CCCc3nc(C4(NC(=O)c5ccc(F)cc5)CC4)ccc32)n1 [Example 245, 4-fluoro-N-(1-(5-(6-methylpyridin-2-yl)-5,6,7,8-tetrahydro-1,5-naphthyridin-2-yl)cyclopropyl)benzamide] | 2580 | – | 2.7 | – | –
Cn1ccc(C(=O)N2CCCc3cc(C4(C(=O)Nc5ccc(F)cn5)CCC4)ccc32)n1 [Example 120, N-(5-fluoropyridin-2-yl)-1-[1-(1-methyl-1H-pyrazole-3-carbonyl)-1,2,3,4-tetrahydroquinolin-6-yl]cyclobutane-1-carboxamide] | 214 | – | 1.4 | – | –
O=C(OC1CC1)N1CCCc2nc(C3(C(=O)Nc4ccc(F)cc4)COC3)ccc21 [Example 266, cyclopropyl 6-(3-((4-fluorophenyl)carbamoyl)oxetan-3-yl)-3,4-dihydro-1,5-naphthyridine-1(2H)-carboxylate] | 4 | – | 2.8 | – | –
Cc1nccc(N2CCCCc3nc(C4(NC(=O)c5ccc(F)cc5)CC4)ccc32)n1 [Example 432, 4-fluoro-N-(1-(5-(2-methylpyrimidin-4-yl)-6,7,8,9-tetrahydro-5H-pyrido[3,2-b]azepin-2-yl)cyclopropyl)benzamide] | 4 | – | – | 3.3 | –
Cc1nccc(N2CCCc3nc(C4(C(=O)Nc5ccc(F)cc5)CC(F)C4)ccc32)n1 (stereo not drawn) [Example 419, 2-(3-fluoro-1-((4-fluorophenyl)carbamoyl)cyclobutyl)-5-(2-methylpyrimidin-4-yl)-5,6,7,8-tetrahydro-1,5-naphthyridin-1-ium 2,2,2-trifluoroacetate] | 69 | 1.09 | – | – | 1
Cc1nc(C(=O)N2CCCc3cc(C4(C(=O)Nc5ccc(F)cc5)CCC4)ccc32)no1 [Example 100, N-(4-fluorophenyl)-1-[1-(5-methyl-1,2,4-oxadiazole-3-carbonyl)-1,2,3,4-tetrahydroquinolin-6-yl]cyclobutane-1-carboxamide] | 90 | – | 1.2 | – | –
CC(C(=O)Nc1ccc(Cl)cc1)c1ccc2c(c1)CC(F)CN2C(=O)c1cccc(Cl)c1 (single isomer, unassigned) [Example 256, 2-(1-(3-chlorobenzoyl)-3-fluoro-1,2,3,4-tetrahydroquinolin-6-yl)-N-(4-chlorophenyl)propanamide] | 50 | – | 2.37 | – | –
CC(C)NC(=O)N1CCCc2cc([C@H](C)C(=O)Nc3ccc(F)cc3)ccc21 [Example 89, 6-{(2S)-1-[(4-fluorophenyl)amino]-1-oxopropan-2-yl}-N-(propan-2-yl)-3,4-dihydroquinoline-1(2H)-carboxamide] | 38 | – | 3.2 | – | –
O=C(OC1CC1)N1CCc2cc(C3(C(=O)Nc4ccc(Cl)cc4)CCC3)ccc21 [Example 273, cyclopropyl 5-{1-[(4-chlorophenyl)carbamoyl]cyclobutyl}-2,3-dihydro-1H-indole-1-carboxylate] | 90 | – | 2 | – | –
CC(NC(=O)c1ccc(Cl)cc1)c1ccc2c(n1)CCCN2c1nc(C(F)(F)F)nc2ccccc12 (stereo not drawn) [Example 358, 2-(1-(4-chlorobenzamido)ethyl)-5-(2-(trifluoromethyl)quinazolin-4-yl)-5,6,7,8-tetrahydro-1,5-naphthyridin-1-ium 2,2,2-trifluoroacetate] | 1000 | 4.24 | – | – | –
Cc1cc(C)n(COC(=O)N2CCCc3nc(C(C)NC(=O)c4ccc(F)cc4)ccc32)n1 (stereo not drawn) [Example 320, (3,5-dimethyl-1H-pyrazol-1-yl)methyl 6-(1-(4-fluorobenzamido)ethyl)-3,4-dihydro-1,5-naphthyridine-1(2H)-carboxylate] | 1690 | 69.2 | – | – | –
Cc1nccc(N2CCCc3nc(C4(C(=O)Nc5ccc(F)cc5)CC5(CC5)C4)ccc32)n1 [Example 415, 2-(5-((4-fluorophenyl)carbamoyl)spiro [2.3]hexan-5-yl)-5-(2-methylpyrimidin-4-yl)-5,6,7,8-tetrahydro-1,5-naphthyridin-1-ium 2,2,2-trifluoroacetate] | 18 | 3.19 | – | – | –
CC(NC(=O)c1ccc(Cl)cc1)c1ccc2c(n1)CCCN2C(=O)OCC(F)(F)F (stereo not drawn) [Example 310] | 46 | 1.61 | – | – | –
O=C(Nc1ccc(Cl)cc1)C1(c2ccc3c(n2)CCCN3c2ccnc(C(F)(F)F)n2)COC1 [Example 396, N-(4-chlorophenyl)-3-(5-(2-(trifluoromethyl)pyrimidin-4-yl)-5,6,7,8-tetrahydro-1,5-naphthyridin-2-yl)oxetane-3-carboxamide] | 27 | – | 1.82 | – | –
Cc1cncc(N2CCCc3nc(C4(NC(=O)c5ccc(F)cc5)CC4)ccc32)n1 [Example 296, 4-fluoro-N-(1-(5-(6-methylpyrazin-2-yl)-5,6,7,8-tetrahydro-1,5-naphthyridin-2-yl)cyclopropyl)benzamide] | 163 | – | 1.51 | – | –
CC(C(=O)Nc1ccc(F)cc1)c1ccc2c(n1)CCCN2c1ccnc(C2CC2)n1 (stereo not drawn) [Example 366, 2-(5-(2-cyclopropylpyrimidin-4-yl)-5,6,7,8-tetrahydro-1,5-naphthyridin-2-yl)-N-(4-fluorophenyl)propanamide] | 140 | 3.82 | – | – | –
Cc1nccc(N2CCCc3nc(C4(C(=O)Nc5ccc(F)cc5)CC(OCc5ccccc5)C4)ccc32)n1 (stereo not drawn) [Example 423, 2-(3-(benzyloxy)-1-((4-fluorophenyl)carbamoyl)cyclobutyl)-5-(2-methylpyrimidin-4-yl)-5,6,7,8-tetrahydro-1,5-naphthyridin-1-ium 2,2,2-trifluoroacetate] | 26 | 6.84 | – | – | 6.8
Cc1nccc(N2CC(F)Cc3cc(C4(NC(=O)c5ccc(Cl)cc5)CC4)ccc32)n1 (racemic) [Example 437, 4-chloro-N-(1-(3-fluoro-1-(2-methylpyrimidin-4-yl)-1,2,3,4-tetrahydroquinolin-6-yl)cyclopropyl)benzamide, 2,2,2-trifluoroacetate salt] | 16 | 1.82 | – | – | –
COCCOC(=O)N1CCCc2nc(C3(NC(=O)c4ccc(Cl)cc4)CCC3)ccc21 [Example 413, 2-methoxyethyl 6-(1-(4-chlorobenzamido)cyclobutyl)-3,4-dihydro-1,5-naphthyridine-1(2H)-carboxylate] | 17 | 3.79 | – | – | –
CC(NC(=O)c1ccc(F)cc1)c1ccc2c(n1)CCCN2C(=O)c1ccccc1Cl (stereo not drawn) [Example 141, N-{1-[5-(2-chlorobenzene-1-carbonyl)-5,6,7,8-tetrahydro-1,5-naphthyridin-2-yl]ethyl}-4-fluorobenzamide] | 26 | – | 1.7 | – | –
C[C@H](C(=O)Nc1ccc(F)cc1)c1ccc2c(c1)CCCN2C(=O)[C@H]1CCCCO1 (single isomer, unassigned) [Example 87] | 22 | – | 2.1 | – | –
Cc1nccc(N2CCCc3nc(C(C)C(=O)Nc4ccc(Cl)cc4)ccc32)n1 (stereo not drawn) [Example 363, N-(4-chlorophenyl)-2-(5-(2-methylpyrimidin-4-yl)-5,6,7,8-tetrahydro-1,5-naphthyridin-2-yl)propanamide] | 178 | 0.93 | – | – | –
CC(C(=O)Nc1ccc(Cl)cc1)c1ccc2c(c1)CC(F)CN2C(=O)c1cccc(Cl)c1 (single isomer, unassigned) [Example 257, 2-(1-(3-chlorobenzoyl)-3-fluoro-1,2,3,4-tetrahydroquinolin-6-yl)-N-(4-chlorophenyl)propanamide] | 35 | – | 1.34 | – | –
